Assay results: patent US20250353830A1, “NOVEL COMPOUNDS” (Hoffmann-La Roche Inc., priority 2022, published 2025)

How the values were obtained:
[1] = molecular target: T1, NLRP3 (Homo sapiens, UniProt Q96P20); assay: THP-1 cells pyroptosis assay (LPS priming, nigericin, resazurin read-out); type: cell-based; design: Seed THP-1 cells (25,000 cells/well) containing 1.0 μg/ml LPS; host or cells: THP-1 cells, LPS-primed, nigericin-stimulated; conditions: 1 μg/ml LPS, 3 hours compound, 5 μM nigericin 1 hr
Experimental: THP-1 cells (ATCC #TIB-202) were grown in RPMI containing L-glutamine (Gibco #11835) supplemented with 1 mM sodium pyruvate (Sigma #S8636) and penicillin (100 units/ml)/streptomycin (0.1 mg/ml) (Sigma #P4333) in 10% Fetal Bovine Serum (FBS) (Sigma #F0804). The cells were routinely passaged and grown to confluency (˜10^6 cells/ml). On the day of the experiment, THP-1 cells were harvested and resuspended into RPMI medium (without FBS). The cells were then counted and viability (>90%) checked by Trypan blue (Sigma #T8154). Appropriate dilutions were made to give a concentration of 625,000 cells/ml. To this diluted cell solution was added LPS (Sigma #L4524) to give a 1 μg/ml Final Assay Concentration (FAC). 40 μl of the final preparation was aliquoted into each well of a 96-well plate. The plate thus prepared was used for compound screening.
The following method step-by-step assay was followed for compound screening. • 1. Seed THP-1 cells (25,000 cells/well) containing 1.0 μg/ml LPS in 40 μl of RPMI medium (without FBS) in 96-well, black walled, clear bottom cell culture plates coated with poly-D-lysine (VWR #734-0317) • 2. Add 5 μl compound (8 points half-log dilution, with 10 μM top dose) or vehicle (DMSO 0.1% FAC) to the appropriate wells • 3. Incubate for 3 hours at 37° C., 5% CO2 • 4. Add 5 μl nigericin (Sigma #N7143) (FAC 5 μM) to all wells • 5. Incubate for 1 hr at 37° C., 5% CO2 • 6. At the end of the incubation period, spin plates at 300×g for 3 mins and remove supernatant • 7. Then add […] of resazurin (Sigma #R7017) (FAC 100 μM resazurin in RPMI medium without FBS) and incubate plates for a further 1-2 hours at 37° C. and 5% CO2 • 8. Plates were read in an Envision reader at Ex 560 nm and Em 590 nm • 9. IC50 data is fitted to a non-linear regression equation (log inhibitor vs response-variable slope 4-parameters)

[2] = molecular target: T1, NLRP3; assay: Human whole blood IL-1β release assay (LPS, nigericin, AlphaLisa); type: cell-based; design: Plate out 80 μl of whole blood containing 1 μg/ml of LPS; from tissue; host or cells: human whole blood from healthy donors, LPS-primed, nigericin-stimulated; conditions: 1 μg/ml LPS, 3 hours compound, 10 μM nigericin 1 hr, IL-1β in supernatant
Experimental: For systemic delivery, the ability to inhibit NLRP3 when the compounds are present within the bloodstream is of great importance. For this reason, the NLRP3 inhibitory activity of a number of compounds in human whole blood was investigated in accordance with the following protocol.
Human whole blood in Li-heparin tubes was obtained from healthy donors from a volunteer donor panel. • 1. Plate out 80 μl of whole blood containing 1 μg/ml of LPS in 96-well, clear bottom cell culture plate (Corning #3585) • 2. Add 10 μl compound (8 points half-log dilution with 10 μM top dose) or vehicle (DMSO 0.1% FAC) to the appropriate wells • 3. Incubate for 3 hours at 37° C., 5% CO2 • 4. Add 10 μl nigericin (Sigma #N7143) (10 μM FAC) to all wells • 5. Incubate for 1 hr at 37° C., 5% CO2 • 6. At the end of the incubation period, spin plates at 300×g for 5 mins to pellet cells and remove 20 μl of supernatant and add to 96-well v-bottom plates for IL-1β analysis (note: these plates containing the supernatants can be stored at −80° C. to be analysed at a later date) • 7. IL-1β was measured according to the manufacturer protocol (Perkin Elmer-AlphaLisa IL-1 Kit AL220F-5000) • 8. IC50 data is fitted to a non-linear regression equation (log inhibitor vs response-variable slope 4-parameters)

T1 sequence (Q96P20 whole entry): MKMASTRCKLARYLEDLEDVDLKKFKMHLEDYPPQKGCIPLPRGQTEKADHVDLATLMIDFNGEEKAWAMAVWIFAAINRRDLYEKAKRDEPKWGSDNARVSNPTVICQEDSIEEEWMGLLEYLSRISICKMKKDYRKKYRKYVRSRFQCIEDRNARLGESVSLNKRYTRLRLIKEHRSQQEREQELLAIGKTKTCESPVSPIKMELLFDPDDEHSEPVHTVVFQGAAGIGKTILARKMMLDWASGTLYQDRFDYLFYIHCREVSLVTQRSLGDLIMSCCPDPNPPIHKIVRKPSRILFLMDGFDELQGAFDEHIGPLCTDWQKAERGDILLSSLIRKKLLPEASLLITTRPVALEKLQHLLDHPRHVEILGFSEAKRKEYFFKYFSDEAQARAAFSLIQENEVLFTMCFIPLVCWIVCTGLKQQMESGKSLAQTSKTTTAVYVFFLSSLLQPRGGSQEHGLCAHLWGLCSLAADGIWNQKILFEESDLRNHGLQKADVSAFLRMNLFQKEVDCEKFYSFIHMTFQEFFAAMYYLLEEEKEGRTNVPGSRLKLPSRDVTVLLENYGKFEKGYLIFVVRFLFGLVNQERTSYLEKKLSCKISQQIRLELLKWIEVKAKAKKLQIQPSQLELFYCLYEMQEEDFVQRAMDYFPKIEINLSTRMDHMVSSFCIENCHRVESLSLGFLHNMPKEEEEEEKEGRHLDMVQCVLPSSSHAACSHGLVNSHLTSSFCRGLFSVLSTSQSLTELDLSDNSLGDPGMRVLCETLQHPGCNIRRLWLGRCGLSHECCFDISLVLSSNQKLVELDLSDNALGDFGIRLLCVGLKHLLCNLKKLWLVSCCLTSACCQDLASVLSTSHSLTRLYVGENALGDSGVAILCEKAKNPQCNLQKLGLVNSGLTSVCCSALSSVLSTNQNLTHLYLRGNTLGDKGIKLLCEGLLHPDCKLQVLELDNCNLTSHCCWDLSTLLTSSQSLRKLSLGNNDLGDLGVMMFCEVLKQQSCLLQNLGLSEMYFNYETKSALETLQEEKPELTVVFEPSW

SMILES | IC50 [1] | IC50 [2]
CCN1CCC[C@@H](Nc2cc(C)c(-c3ccc4cc[nH]c4c3F)nn2)C1 [Example 10, N-[(3R)-1-ethyl-3-piperidyl]-6-(7-fluoro-1H-indol-6-yl)-5-methyl-pyridazin-3-amine] | 22.6 nM | 45.1 nM
CCN1CCC[C@@H](Nc2cc(C)c(-c3ccc4c(F)c[nH]c4c3)nn2)C1 [Example 2, N-[(3R)-1-Ethyl-3-piperidyl]-6-(3-fluoro-1H-indol-6-yl)-5-methyl-pyridazin-3-amine] | 2.7 nM | 9.5 nM
CCN1CCC[C@@H](Nc2nnc(-c3ccc4cc[nH]c4c3)c3c2cnn3C)C1 [Example 15, N-[(3R)-1-Ethyl-3-piperidyl]-7-(1H-indol-6-yl)-1-methyl-pyrazolo[3,4-d]pyridazin-4-amine] | 27 nM | 52 nM
Cc1cc(N2CC[C@@H]3CCN(C)C[C@@H]32)nnc1-c1ccc2c(F)c[nH]c2c1 (single isomer, unassigned) [Example 18A] | 2 nM | 31 nM
CCN1CCC[C@@H](Nc2cc(C)c(-c3ccc4c(C#N)c[nH]c4c3)nn2)C1 [Example 7, 6-[6-[[(3R)-1-Ethyl-3-piperidyl]amino]-4-methyl-pyridazin-3-yl]-1H-indole-3-carbonitrile] | 133 nM | –
Cc1cc(N2CC[C@H]3CCN(C)C[C@H]32)nnc1-c1ccc2c(F)c[nH]c2c1 [Example 18B, (3aR,7aS)-1-[6-(3-fluoro-1H-indol-6-yl)-5-methyl-pyridazin-3-yl]-6-methyl-3,3a,4,5,7,7a-hexahydro-2H-pyrrolo[2,3-c]pyridine] | 37 nM | 179 nM
CCN1CCC[C@@H](Nc2cc(C)c(-c3ccc4cc[nH]c4c3)nn2)C1 [Example 1, N-[(3R)-1-Ethyl-3-piperidyl]-6-(1H-indol-6-yl)-5-methyl-pyridazin-3-amine] | 5.1 nM | 17.1 nM
Cc1cc(N[C@H]2C[C@@](C)(O)C2)nnc1-c1ccc2c(F)c[nH]c2c1 [Example 17, 3-[[6-(3-Fluoro-1H-indol-6-yl)-5-methyl-pyridazin-3-yl]amino]-1-methyl-cyclobutanol] | 493 nM | –
CCN1CCC[C@@H](Nc2ccc(-c3cc4[nH]ccc4cc3C)nn2)C1 [Example 16, N-[(3R)-1-Ethyl-3-piperidyl]-6-(5-methyl-1H-indol-6-yl)pyridazin-3-amine] | 21 nM | 113 nM
CCN1CCC[C@@H](Nc2cc(C)c(-c3cc4[nH]ccc4cc3F)nn2)C1 [Example 3, N-[(3R)-1-ethyl-3-piperidyl]-6-(5-fluoro-1H-indol-6-yl)-5-methyl-pyridazin-3-amine] | 9.2 nM | 48.6 nM
CCc1cc(N[C@@H]2CCCN(CC)C2)nnc1-c1ccc2c(F)c[nH]c2c1 [Example 12, 5-Ethyl-N-[(3R)-1-ethyl-3-piperidyl]-6-(3-fluoro-1H-indol-6-yl)pyridazin-3-amine] | 18.3 nM | 25.4 nM
CCN1CCC[C@@H](Nc2nnc(-c3ccc4c(F)c[nH]c4c3)c(C)n2)C1 [Example 14, N-[(3R)-1-Ethyl-3-piperidyl]-6-(3-fluoro-1H-indol-6-yl)-5-methyl-1,2,4-triazin-3-amine] | 55.9 nM | 43.2 nM
Cc1cc(N[C@@H]2CCCN(C)C2)nnc1-c1ccc2c(F)c[nH]c2c1 [Example 9, 6-(3-Fluoro-1H-indol-6-yl)-5-methyl-N-[(3R)-1-methyl-3-piperidyl]pyridazin-3-amine] | 4.9 nM | 26.5 nM
CCN1CCC[C@@H](Nc2cc(C)c(-c3ccc4cc(C)[nH]c4c3)nn2)C1 [Example 6, N-[(3R)-1-Ethyl-3-piperidyl]-5-methyl-6-(2-methyl-1H-indol-6-yl)pyridazin-3-amine] | 12.3 nM | 56.2 nM
CCN1CCC[C@@H](Nc2cc(C)c(-c3ccc4cc(C#N)[nH]c4c3)nn2)C1 [Example 8, 6-[6-[[(3R)-1-Ethyl-3-piperidyl]amino]-4-methyl-pyridazin-3-yl]-1H-indole-2-carbonitrile] | 123 nM | –
CCN1CCC[C@@H](Nc2nnc(-c3ccc4cc[nH]c4c3)c(C)n2)C1 [Example 13, N-[(3R)-1-Ethyl-3-piperidyl]-6-(1H-indol-6-yl)-5-methyl-1,2,4-triazin-3-amine] | 47.3 nM | 28.6 nM
CCN1CCC[C@@H](Nc2cc(C(F)(F)F)c(-c3ccc4c(F)c[nH]c4c3)nn2)C1 [Example 11, N-[(3R)-1-Ethyl-3-piperidyl]-6-(3-fluoro-1H-indol-6-yl)-5-(trifluoromethyl)pyridazin-3-amine] | 5.1 nM | 44.1 nM
CCN1CCC[C@@H](Nc2cc(C)c(-c3ccc4c(C)c[nH]c4c3)nn2)C1 [Example 4, N-[(3R)-1-Ethyl-3-piperidyl]-5-methyl-6-(3-methyl-1H-indol-6-yl)pyridazin-3-amine] | 43.7 nM | 234 nM
